Results taken from patent US7563935B2, “Crystal forms of astaxanthin” (Phares Pharmaceutical Research N.V. et al., priority 2005, dated 2009).

Columns and labels:
Assay type in all cases: physicochemical
[1] = Stability of the crystal in the dry form
[2] = Solubility profile in dichloromethane; settings: 20° C.-25° C.
[3] = Solubility and rate of dissolution in organo-solvents or oils (comparison of crystal forms); settings: Form I vs Form II

Row | stability [1] | solubility profile in dichloromethane [2] | rate of dissolution in organo-solvents or oils relative to the other crystal form [3] | solubility in organo-solvents or oils relative to the other crystal form [3] | SMILES
1 | stable in the dry form | 35 to 45 g/L | higher | higher solubility | CC1=C(/C=C/C(C)=C/C=C/C(C)=C/C=C/C=C(C)/C=C/C=C(C)/C=C/C2=C(C)C(=O)C(O)CC2(C)C)C(C)(C)CC(O)C1=O (stereo not drawn) [Crystal Form I, 3,3′-dihydroxy-β,β-carotene-4,4′-dione]
2 | – | 10-30 g/l | – | lower solubility | CC1=C(/C=C/C(C)=C/C=C/C(C)=C/C=C/C=C(C)/C=C/C=C(C)/C=C/C2=C(C)C(=O)C(O)CC2(C)C)C(C)(C)CC(O)C1=O (stereo not drawn) [Crystal Form II, 3,3′-dihydroxy-β,β-carotene-4,4′-dione]
